Experimental data as given in paper PMC10714390, “Quinoline Compounds Targeting the c-Ring of ATP Synthase Inhibit Drug-Resistant Pseudomonas aeruginosa” (ACS Infectious Diseases, 2023).
Several values for one entry are separate records, joined by “and”; a condition that tells them apart may be missing. Equal entries are not always repeated. Where two headings read alike, the source gives them in different places.

Key:
[1] = test system: drug-resistant P. aeruginosa BAA 2110; experiment: Antimicrobial susceptibility (broth microdilution), BAA 2110; format: cell-based, Pseudomonas aeruginosa; settings: Pseudomonas aeruginosa, BAA2110, read-out: antibacterial activity (MIC) BAA 2110
Experimental: (§1) The following are general steps, unless otherwise noted. All steps were completed using aseptic techniques. All media and glassware were sterilized via an autoclave at 121 °C for 60 min. All agitation occurred at 160 rpm in a temperature-controlled console shaker (Excella E25) at 37 °C. Full-strength tryptic soy broth (TSB) was made by dissolving 30 g of BD Bacto TSB powder in 1 L of deionized water. Purchased and acquired bacterial strains used were E. coli (ATCC 25922), P. aeruginosa (ATCC 9027), drug-resistant P. aeruginosa from ATCC Panel MP-23 (BAA 2108, BAA 2109, BAA 2110), and P. aeruginosa efflux knockout GKCW120 (PΔ6)[6] provided by Zgurskaya and co-workers at the University of Oklahoma.
(§2) Susceptibility testing was performed in biological triplicate using the broth microdilution method as outlined by the Clinical and Laboratory Standards Institute. […] Briefly, to each well, 1 μL of compound in DMSO, 89 μL of TSB, and 10 μL of bacterial inoculum, grown from a single colony in 10 mL of TSB for 4–6 h, were added. After incubation for 12–15 h at 37 °C, absorbance at 590 nm was read on a Biotek Synergy HTX Multimode plate reader. Data were processed by background subtracting the media absorbance and then normalizing the data to full bacterial growth with the vehicle only. MIC is defined as the lowest concentration of antibiotic or antibiotic/adjuvant combination that achieves ≥85% growth inhibition, which corresponds to no visible growth.

[2] = test system: P. aeruginosa efflux knockout GKCW120 (PΔ6); experiment: Antimicrobial susceptibility (broth microdilution), PΔ6 efflux knockout; format: cell-based, Pseudomonas aeruginosa; settings: n = 3; >85% reduction in growth at OD 590 nm
Experimental: as §1, §2
(§3) Initial antibacterial activity screen of compounds 4, 5, and S1-S6
(§4) Compounds 4, 5, and S1-S6 were screened for initial antibiotic activity against a susceptible laboratory strain of EC (designated EC 25922), and non-virulent, biofilm forming strain of PA (designated PA 9027), and PD6 (efflux knockout strain6) at 128 µg/mL in DMSO. Sterilization and Antimicrobial Susceptibility Assay procedures utilized were the same as described in the methods.
(§5) Table S1. Antibacterial activity screening results for compounds 4, 5, and S1-S6 at 128 µg/mL
(§6) Table S1. Antibacterial activity screening results for compounds 4, 5, and S1-S6 at 128 µg/mL.

[3] = test system: drug-resistant P. aeruginosa BAA 2109; experiment: Antimicrobial susceptibility (broth microdilution), BAA 2109; format: cell-based, Pseudomonas aeruginosa; settings: Pseudomonas aeruginosa, BAA2109, read-out: antibacterial activity (MIC) BAA 2109
Experimental: as §1, §2

[4] = test system: P. aeruginosa (ATCC 9027); experiment: Antimicrobial susceptibility (broth microdilution), PA 9027; format: cell-based, Pseudomonas aeruginosa; settings: Pseudomonas aeruginosa, ATCC9027; n = 3; >85% reduction in growth at OD 590 nm; read-out: antibacterial activity (MIC) PA 9027
Experimental: as §1, §2, §3, §4, §5, §6

[5] = test system: drug-resistant P. aeruginosa BAA 2108; experiment: Antimicrobial susceptibility (broth microdilution), BAA 2108; format: cell-based, Pseudomonas aeruginosa; settings: Pseudomonas aeruginosa, BAA2108, read-out: antibacterial activity (MIC) BAA 2108
Experimental: as §1, §2

[6] = test system: EC electron transport chain; experiment: Electron transport activity (NADH-driven H+ pumping, ACMA quenching), E. coli DK8/pASH20 vesicles; format: biochemical, Escherichia coli
Experimental: Determination of electron transport activity. In an opaque black 96-well plate, inverted membrane
vesicles from PA or E. coli DK8 pASH20 were added to HMK buffer containing 0.3 µg/mL 9-amino-6-chloro-
2-methoxyacridine (ACMA) and 0-64 µg/mL test compound in DMSO. After measurement of baseline
ACMA fluorescence for 60 s, redox-driven H+ pumping was initiated by addition of NADH to 0.8 mM, and
fluorescence quenching was monitored for 120 s before addition of nigericin to 0.5 µg/mL. Relative
activity is reported as the minimum fluorescence value normalized to the maximum fluorescence value
following addition of nigericin. […]

[7] = test system: P. aeruginosa (ATCC 9027); set-up: method as in PMID 35990476; settings: cited from earlier work
[8] = target: T1, PA ATP synthase expressed in E. coli DK8/pASH20 (Pseudomonas aeruginosa, UniProt Q9HT15); experiment: NADH-driven ATP synthesis inhibition, DK8/pASH20 membrane vesicles; format: biochemical
T1 construct: expressed in transfected cells; host or cells: E. coli K-12 DK8 (lacks its own ATP synthase) transformed with pASH20 (pBR322 derivative)
Experimental: (§7) P. aeruginosa (ATCC 9027) was streaked onto a 10% TSB agar plate and incubated at room temperature for 72 h. A single colony was resuspended in 100 μL of H2O, and 5 μL was used as the DNA template for PCR with Q5 polymerase (NEB) and […] each of forward and reverse primers. Primers were complementary to regions flanking the atp operon and included sequences for HindIII and NdeI restriction sites (see the SI for primer sequences). The resulting 6.9 kbp DNA fragment was digested with HindIII and NdeI and ligated into digested vector pBR322 (New England Biolabs). The resultant pASH20(-i) plasmid contains a partial atpI gene. To complete the atpI gene, the HindII-XhoI fragment of pASH20(-i) was replaced with a synthetic fragment with a complete atpI (Twist Bioscience) to yield pASH20. The sequence of the entire operon was verified by Sanger DNA sequencing through the ligation sites. Subunit c mutations were introduced by exchanging the XhoI-BamHI fragment containing atpE with a synthetic fragment containing mutated atpE (Twist Bioscience).
(§8) Vesicles were prepared from P. aeruginosa and transformed E. coli cells as previously described.[22] Briefly, cells were grown in LB liquid medium at 37 °C with shaking and harvested by centrifugation after 7 h of growth. Cultures of transformant E. coli included 100 μg/mL ampicillin. Cells were disrupted in TMG buffer (50 mM Tris-HCl, MgCl2, 10% (v/v) glycerol, pH 7.5) using an Avestin B15 homogenizer at 19,000 psi. After unbroken cells and debris were cleared by centrifugation at 9000g, inverted vesicles were collected by centrifugation at 193,000g, resuspended in TMG buffer, and stored at −80 °C. Protein concentrations were determined using a modified Lowry assay.[25]
(§9) Continuous ATP synthesis activity of inverted membrane vesicles was measured using a luciferin/luciferase luminescence assay as previously described.[22] Inhibition of ATP synthesis activity by test compounds was determined using an end point assay essentially as previously described.[18],[26] In this assay, the synthesis reaction was initiated by 2.5 mM NADH, proceeded for 10 min, and was stopped with 1% trichloroacetic acid, 2 mM CCCP, and 10 mM EDTA. Samples from each reaction were diluted 500-fold prior to the addition of luciferase since quinoline compounds are known to inhibit luciferase.[27] This dilution was sufficient to minimize inhibition of luciferase (Figure S4). Each replicate set included a positive control containing DMSO with no compound and a negative control containing carbonyl cyanide m-chlorophenyl hydrazone. Luminescence values were corrected for the background by subtracting the negative control and then normalized to the positive control within the same replicate. Dose–response curves were fit using eq 1, where activity is the relative ATP synthesis activity, [I] is the concentration of inhibitor in μg/mL, and n is the Hill coefficient. [drawing 1] 1

[9] = test system: PA electron transport chain; set-up: method as in PMID 35990476; settings: PA vesicles; cited from earlier work
[10] = target: T2, PA ATP synthase cIle65Ala mutant (Pseudomonas aeruginosa, UniProt Q9HT15, I65A); experiment: NADH-driven ATP synthesis inhibition, DK8/pASH20 cI65A membrane vesicles; format: biochemical
T2 construct: expressed in transfected cells; host or cells: E. coli K-12 DK8 transformed with pASH20 carrying mutated atpE
Experimental: as §7, §8, §9

[11] = target: T3, PA ATP synthase cIle65Phe mutant (Pseudomonas aeruginosa, UniProt Q9HT15, I65F); experiment: NADH-driven ATP synthesis inhibition, DK8/pASH20 cI65F membrane vesicles; format: biochemical
T3 construct: expressed in transfected cells; host or cells: E. coli K-12 DK8 transformed with pASH20 carrying mutated atpE
Experimental: as §7, §8, §9

[12] = test system: P. aeruginosa efflux knockout GKCW120 (PΔ6); set-up: method as in PMID 35990476; settings: cited from earlier work
[13] = target: T4, PA ATP synthase (Pseudomonas aeruginosa, UniProt Q9HT15); set-up: method as in PMID 35990476; settings: PA membrane vesicles; cited from earlier work
T4 construct: Inverted membrane vesicles were prepared from PA 9027; endogenous in cells; host or cells: Pseudomonas aeruginosa ATCC 9027, inverted membrane vesicles

[14] = target: T4, PA ATP synthase; experiment: NADH-driven ATP synthesis inhibition, PA inverted membrane vesicles; format: biochemical; settings: inhibition of ATP synthesis activity
Experimental: as §8, §9

[15] = test system: E. coli (ATCC 25922); set-up: method as in PMID 35990476; settings: cited from earlier work
[16] = inhibition of ATP synthesis activity

Compound	MIC [1] [µg/mL]	antibacterial activity (MIC) PΔ6 [2] [µg/mL]	MIC [3] [µg/mL]	MIC [4] [µg/mL]	MIC [5] [µg/mL]	inhibition of EC ETC-driven H+ pumping, in words ([6]; 0-64 µg/mL, Figure S2)	Inhibition of the EC electron transport chain IC50 ([6]; EC (DK8/pASH20) vesicles) [µg/mL]	antibacterial activity (MIC) PA 9027 [7] [µg/mL]	IC50 ([8]; ATP synthesis IC50, DK8/pASH20 vesicles, wild-type PA ATP synthase in E. coli DK8, NADH-driven, end point luminescence assay)	Hill coefficient of dose response fit, DK8/pASH20 vesicles [8, 16]	Inhibition of the PA electron transport chain IC50 [9]	IC50 ([10]; ATP synthesis IC50, DK8/pASH20 cI65A vesicles, cI65A mutant, NADH-driven, luminescence assay) [µM]	Hill coefficient of dose response fit, DK8/pASH20 cI65A vesicles [10, 16]	IC50 [11] [µM]	Hill coefficient of dose response fit, DK8/pASH20 cI65F vesicles [11, 16]	antibacterial activity (MIC) PΔ6 [12] [µg/mL]	PA ATP synthesis IC50 [13] [µg/mL]	Hill coefficient of dose response fit, PA vesicles [14]	antibacterial activity (MIC) EC 25922 [15] [µg/mL]
CNC(C)C1CCC(N)C(OC2C(N)CC(N)C(OC3OCC(C)(O)C(NC)C3O)C2O)O1 (stereo not shown) [gentamicin, reference compound]	4 to 8	>4	2	2 to 4	16	–	–	–	–	–	–	–	–	–	–	–	–	–	–
COC(=O)[C@H](Cc1ccc(O)cc1)NCc1cc2ccccc2nc1SC [Compound 1, reference compound]	–	–	–	–	–	did not inhibit the electron transport chain strongly	>64	>256	27.7 µM and 28.8 µM	1.3	>64[18] μg/mL	18	1.1	22	1.4	>256	10.0	1.4	>128
